The record followed here is PMC5518096, “Use of a special Brazilian red-light emitting railroad worm Luciferase in bioassays of NEK7 protein Kinase and Creatine Kinase” (BMC Biochemistry, 2017).

Assay in all cases: ATP consumption, coupled red luciferase luminescence
Holding throughout (assay type): biochemical

One assay addresses NEK7 (6xHis-NEK7) (Homo sapiens, UniProt Q8TDX7). To be noted: 1 uM ATP, protein substrates NEK9(764-976), MAT1 or CC2D1A(501-940), 4 mM MgSO4, pH 8, 37 °C.
Assay [1] has as its target T1, uMtCK (6xHis-ubiquitous creatine kinase, pUS04) (Homo sapiens, UniProt P12532).
T1 construct: gene CKMT1A; 6xHis, pET3b plasmid pUS04 (Schlattner), E. coli BL21(DE3)
Conditions: 5 mM creatine, 50 uM ATP, 4 mM MgSO4, pH 8, 37 °C, 30 min.

The target of assay [2] is T2, sMtCK (6xHis-sarcomeric creatine kinase, pUS01) (Homo sapiens, UniProt P17540).
T2 construct: gene CKMT2; 6xHis, pET3b plasmid pUS01 (Schlattner), E. coli BL21(DE3)
Conditions: 5 mM creatine, 50 uM ATP, 4 mM MgSO4, pH 8, 37 °C, 30 min.

NEK7 (6xHis-NEK7), sequence (Q8TDX7 whole entry): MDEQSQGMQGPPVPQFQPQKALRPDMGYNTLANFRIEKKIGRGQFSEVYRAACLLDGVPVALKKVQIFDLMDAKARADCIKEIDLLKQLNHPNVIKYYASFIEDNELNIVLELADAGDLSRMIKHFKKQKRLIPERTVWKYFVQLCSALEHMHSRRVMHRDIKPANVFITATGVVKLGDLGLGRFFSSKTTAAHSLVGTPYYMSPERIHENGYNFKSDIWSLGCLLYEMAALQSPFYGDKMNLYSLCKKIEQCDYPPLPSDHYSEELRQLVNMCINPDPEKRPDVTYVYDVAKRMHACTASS

Consider `Nc1ncnc2c1ncn2[C@@H]1O[C@H](COP(=O)(O)OP(=O)(O)OP(=O)(O)O)[C@@H](O)[C@H]1O` [ATP], for which the “ATP consumption, coupled red luciferase luminescence” value at NEK7 (6xHis-NEK7) was “ATP consumption by NEK7, due to its phosphorylation of substrate proteins/domains”; in assay [1], “ATP was consumed only in the presence of creatine kinase and creatine”; in assay [2] it was “ATP was consumed only in the presence of creatine kinase and creatine”.

With `CN(CC(=O)O)C(=N)N` [creatine], the “ATP consumption, coupled red luciferase luminescence” value in assay [2] is listed as “when creatine was added, the light emission was significantly decreased”.
